Laboratory results reported in ChEMBL document CHEMBL1201862, “PubChem BioAssay data set” (2004).
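These data come from cells grown in 96-well plates and exposed to compound for 48 hours at five concentrations. At the GI50, growth is halved.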 The source made the active and inactive calls. No stated cut-off is given here; in the data, active = GI50 up to about 1.1 µM and inactive = higher.

How the values were obtained:
Assay in all cases: growth of human tumour cells (NCI), 48 h
SF-539 = system: SF-539
NCI-H226 = system: NCI-H226
XF498 = system: XF498
OVCAR-4 = system: OVCAR-4
SR = system: SR
OVCAR-5 = system: OVCAR-5
NCI-H522 = system: NCI-H522
CCRF-CEM = system: CCRF-CEM
HCT-15 = system: HCT-15
A549 = system: A549
DMS-114 = system: DMS-114
786-0 = system: 786-0
HL-60 = system: HL-60
HT-29 = system: HT-29
DMS-273 = system: DMS-273
MOLT-4 = system: MOLT-4
SK-MEL-28 = system: SK-MEL-28
HCC 2998 = system: HCC 2998
SN12C = system: SN12C
EKVX = system: EKVX
SK-MEL-5 = system: SK-MEL-5
CAKI-1 = system: CAKI-1
DLD-1 = system: DLD-1
SNB-75 = system: SNB-75
M14 = system: M14
K562 = system: K562
ACHN = system: ACHN
COLO 205 = system: COLO 205
TK-10 = system: TK-10
NCI-H23 = system: NCI-H23
SF-295 = system: SF-295
LOX IMVI = system: LOX IMVI
UO-31 = system: UO-31
OVCAR-8 = system: OVCAR-8
M19-MEL = system: M19-MEL
KM-20L2 = system: KM-20L2
RXF 393 = system: RXF 393
SK-OV-3 = system: SK-OV-3
SNB-19 = system: SNB-19
A498 = system: A498
HOP-62 = system: HOP-62
UACC-257 = system: UACC-257
Malme-3M = system: Malme-3M
KM12 = system: KM12
SNB-78 = system: SNB-78
UACC-62 = system: UACC-62
U-251 = system: U-251
SF-268 = system: SF-268
HCT-116 = system: HCT-116
NCI-H460 = system: NCI-H460
OVCAR-3 = system: OVCAR-3
LXFL 529 = system: LXFL 529
IGROV-1 = system: IGROV-1
MDA-MB-435 = system: MDA-MB-435
HOP-92 = system: HOP-92
RPMI-8226 = system: RPMI-8226
DU-145 = system: DU-145
SW-620 = system: SW-620
Hs-578T = system: Hs-578T
BT-549 = system: BT-549
SK-MEL-2 = system: SK-MEL-2
NCI/ADR-RES = system: NCI/ADR-RES
PC-3 = system: PC-3
T47D = system: T47D
HOP-18 = system: HOP-18
MDA-MB-231 = system: MDA-MB-231
MCF7 = system: MCF7
MDA-N = system: MDA-N

In the case of `Cn1cc/c(=N\N=c2/ccn(C)c3ccccc23)c2ccccc21`, the GI50 (SF-539) is reported as 15.9 µM (inactive), the GI50 (NCI-H226) is reported as 11.7 µM (inactive) and the GI50 (XF498) is reported as 14.1 µM (inactive). The GI50 (OVCAR-4) was 12.7 µM (inactive), the GI50 (SR) was 16.4 µM (inactive) and the GI50 (OVCAR-5) was 15.8 µM (inactive). The GI50 (NCI-H522) was 14.6 µM (inactive), the GI50 (CCRF-CEM) was 6.31 µM (inactive) and the GI50 (HCT-15) was 15.8 µM. The GI50 (A549) was 15.7 µM (inactive), the GI50 (DMS-114) was 14.4 µM (inactive) and the GI50 (786-0) was 16.4 µM (inactive). For the same molecule, the GI50 (HL-60) was 5.78 µM (inactive), the GI50 (HT-29) was 12.7 µM (inactive) and the GI50 (DMS-273) was 16.4 µM (inactive). For the same molecule, the GI50 (MOLT-4) was 27.1 µM (inactive), the GI50 (SK-MEL-28) was 15.2 µM (inactive) and the GI50 (HCC 2998) was 15.8 µM (inactive). For the same molecule, the GI50 (SN12C) was 16.9 µM (inactive), the GI50 (EKVX) was 14.7 µM (inactive) and the GI50 (SK-MEL-5) was 15.9 µM (inactive). The GI50 (CAKI-1) was 17.9 µM (inactive), the GI50 (DLD-1) was 14.7 µM (inactive) and the GI50 (SNB-75) was 24.1 µM (inactive). For the same molecule, the GI50 (M14) was 16.9 µM (inactive), the GI50 (K562) was 4.44 µM (inactive) and the GI50 (ACHN) was 13.9 µM (inactive). The GI50 (COLO 205) was 10.4 µM (inactive), the GI50 (TK-10) was 19.1 µM (inactive) and the GI50 (NCI-H23) was 13.2 µM (inactive). For the same molecule, the GI50 (SF-295) was 16.1 µM (inactive), the GI50 (LOX IMVI) was 11.9 µM (inactive) and the GI50 (UO-31) was 13.2 µM (inactive). The GI50 (OVCAR-8) was 14.9 µM (inactive), the GI50 (M19-MEL) was 18.7 µM (inactive) and the GI50 (KM-20L2) was 13.1 µM (inactive). For the same molecule, the GI50 (RXF 393) was 14.3 µM (inactive), the GI50 (SK-OV-3) was 15.7 µM (inactive) and the GI50 (SNB-19) was 16.9 µM (inactive). For the same molecule, the GI50 (A498) was 18.5 µM (inactive), the GI50 (HOP-62) was 13.1 µM (inactive) and the GI50 (UACC-257) was 13.9 µM (inactive). The GI50 (Malme-3M) was 17.2 µM (inactive), the GI50 (KM12) was 13 µM (inactive) and the GI50 (SNB-78) was 16.4 µM (inactive). For the same molecule, the GI50 (UACC-62) was 16.2 µM (inactive), the GI50 (U-251) was 15.7 µM (inactive) and the GI50 (SF-268) was 19.3 µM (inactive). The GI50 (HCT-116) was 11.1 µM (inactive), the GI50 (NCI-H460) was 12.1 µM (inactive) and the GI50 (OVCAR-3) was 11.7 µM (inactive). For the same molecule, the GI50 (LXFL 529) was 14.1 µM (inactive).

With `CO[C@H]1[C@H](O)[C@H](O[C@H]2CC[C@@]3(C)[C@H](CC[C@@H]4[C@@H]3CC[C@]3(C)[C@@H](C5=CC(=O)OC5)CC[C@]43O)C2)O[C@@H](C)[C@@H]1O` [NERIIFOLIN] the GI50 (SF-539) was 0.000569 µM (active), the GI50 (NCI-H226) was 0.00596 µM (active) and the GI50 (IGROV-1) was 0.000526 µM (active). For the same molecule, the GI50 (OVCAR-4) was 0.00028 µM (active), the GI50 (SR) was < 0.01 µM (active) and the GI50 (OVCAR-5) was 0.00154 µM (active). The GI50 (NCI-H522) was 0.000151 µM (active), the GI50 (CCRF-CEM) was 0.000362 µM (active) and the GI50 (HCT-15) was 0.00112 µM. For the same molecule, the GI50 (A549) was 0.000379 µM (active), the GI50 (MDA-MB-435) was < 0.0001 µM (active) and the GI50 (DMS-114) was 0.000138 µM (active). The GI50 (HOP-92) was 0.00123 µM (active), the GI50 (786-0) was 0.000439 µM (active) and the GI50 (HL-60) was 0.000419 µM (active). The GI50 (HT-29) was 0.000615 µM (active), the GI50 (DMS-273) was 0.000548 µM (active) and the GI50 (MOLT-4) was 0.000377 µM (active). The GI50 (SK-MEL-28) was 0.00189 µM (active), the GI50 (HCC 2998) was 0.0094 µM (active) and the GI50 (SN12C) was 0.000211 µM (active). The GI50 (EKVX) was 0.000473 µM (active), the GI50 (SK-MEL-5) was 0.000838 µM (active) and the GI50 (CAKI-1) was 0.000572 µM (active). The GI50 (DLD-1) was 0.00184 µM (active), the GI50 (RPMI-8226) was 0.00111 µM (active) and the GI50 (DU-145) was < 0.0001 µM (active). For the same molecule, the GI50 (SNB-75) was 0.000483 µM (active), the GI50 (SW-620) was 0.000925 µM (active) and the GI50 (M14) was 0.00139 µM (active). For the same molecule, the GI50 (Hs-578T) was < 0.0001 µM (active), the GI50 (ACHN) was 0.000224 µM (active) and the GI50 (COLO 205) was 0.0018 µM (active). For the same molecule, the GI50 (BT-549) was 0.000429 µM (active), the GI50 (TK-10) was 0.000859 µM (active) and the GI50 (NCI-H23) was 0.000394 µM (active). The GI50 (SF-295) was 0.00056 µM (active), the GI50 (SK-MEL-2) was 0.00117 µM (active) and the GI50 (LOX IMVI) was 0.000755 µM (active). For the same molecule, the GI50 (UO-31) was 0.000902 µM (active), the GI50 (OVCAR-8) was 0.00108 µM (active) and the GI50 (M19-MEL) was 0.00363 µM (active). The GI50 (KM-20L2) was 0.00311 µM (active), the GI50 (RXF 393) was < 0.01 µM (active) and the GI50 (SK-OV-3) was 0.00108 µM (active). For the same molecule, the GI50 (SNB-19) was 0.00094 µM (active), the GI50 (A498) was 0.00863 µM (active) and the GI50 (HOP-62) was 0.00027 µM (active). For the same molecule, the GI50 (UACC-257) was 0.00167 µM (active), the GI50 (Malme-3M) was 0.000428 µM (active) and the GI50 (NCI/ADR-RES) was 0.000546 µM (active). The GI50 (KM12) was 0.00152 µM (active), the GI50 (PC-3) was 0.000724 µM (active) and the GI50 (T47D) was 0.000628 µM (active). The GI50 (HOP-18) was 0.000476 µM (active), the GI50 (SNB-78) was 0.000552 µM (active) and the GI50 (UACC-62) was 0.00155 µM (active). The GI50 (U-251) was 0.00132 µM (active), the GI50 (SF-268) was 0.000444 µM (active) and the GI50 (MDA-MB-231) was 0.00165 µM (active). The GI50 (HCT-116) was 0.000689 µM (active), the GI50 (NCI-H460) was 0.0006 µM (active) and the GI50 (OVCAR-3) was 0.000515 µM (active). The GI50 (MCF7) was 0.00076 µM (active), the GI50 (LXFL 529) was 0.00135 µM (active) and the GI50 (MDA-N) was < 0.0001 µM (active).

In the case of `CC1=N/C(=C\c2ccc(C)cc2)C(=O)O1`, the GI50 (XF498) is reported as > 100 µM (inactive), the GI50 (IGROV-1) is reported as > 100 µM (inactive) and the GI50 (OVCAR-4) is reported as > 100 µM (inactive). For the same molecule, the GI50 (SR) was > 100 µM (inactive), the GI50 (OVCAR-5) was > 100 µM (inactive) and the GI50 (NCI-H522) was > 100 µM (inactive). For the same molecule, the GI50 (CCRF-CEM) was > 100 µM (inactive), the GI50 (HCT-15) was greater than 100 µM and the GI50 (HOP-92) was > 100 µM (inactive). For the same molecule, the GI50 (HT-29) was > 100 µM (inactive), the GI50 (MOLT-4) was > 100 µM (inactive) and the GI50 (SK-MEL-28) was > 100 µM (inactive). The GI50 (HCC 2998) was > 100 µM (inactive), the GI50 (SN12C) was > 100 µM (inactive) and the GI50 (SK-MEL-5) was > 100 µM (inactive). For the same molecule, the GI50 (CAKI-1) was > 100 µM (inactive), the GI50 (DLD-1) was > 100 µM (inactive) and the GI50 (SW-620) was > 100 µM (inactive). For the same molecule, the GI50 (M14) was > 100 µM (inactive), the GI50 (K562) was > 100 µM (inactive) and the GI50 (COLO 205) was > 100 µM (inactive). The GI50 (TK-10) was > 100 µM (inactive), the GI50 (NCI-H23) was > 100 µM (inactive) and the GI50 (SF-295) was > 100 µM (inactive). For the same molecule, the GI50 (SK-MEL-2) was > 100 µM (inactive), the GI50 (UO-31) was > 100 µM (inactive) and the GI50 (OVCAR-8) was > 100 µM (inactive). The GI50 (M19-MEL) was > 100 µM (inactive), the GI50 (KM-20L2) was > 100 µM (inactive) and the GI50 (RXF 393) was > 100 µM (inactive). For the same molecule, the GI50 (SK-OV-3) was > 100 µM (inactive), the GI50 (SNB-19) was > 100 µM (inactive) and the GI50 (Malme-3M) was > 100 µM (inactive). The GI50 (KM12) was > 100 µM (inactive), the GI50 (SNB-78) was > 100 µM (inactive) and the GI50 (UACC-62) was > 100 µM (inactive). The GI50 (U-251) was > 100 µM (inactive), the GI50 (OVCAR-3) was > 100 µM (inactive) and the GI50 (LXFL 529) was > 100 µM (inactive).
